# Test results: ChEMBL document CHEMBL3885881, “DrugMatrix”
# Species on record: Rattus norvegicus
# Test: DrugMatrix - Regimen: Daily Repeat
# Type: toxicity, organism-based, Sprague-Dawley
# Set-up: regimen Daily Repeat, gender Male, age 6-8 weeks
# Conditions: in vivo, po, route oral GAVAGE, […]; for ABSOLUTE BASOPHIL / ABSOLUTE EOSINOPHIL / ABSOLUTE LYMPHOCYTE / ABSOLUTE MONOCYTE / ABSOLUTE SEGMENTED NEUTROPHIL / BASOPHIL / EOSINOPHIL / ERYTHROCYTE COUNT / HEMATOCRIT / HEMOGLOBIN / LEUKOCYTE COUNT / LYMPHOCYTE / MEAN CORPUSCULAR HEMOGLOBIN / MEAN CORPUSCULAR HEMOGLOBIN CONCENTRATION / MEAN CORPUSCULAR VOLUME / MONOCYTE / NEUTROPHIL / NUCLEATED RED BLOOD CELLS / PLATELET COUNT: tissue Blood; for ALANINE AMINOTRANSFERASE / ALBUMIN / ALKALINE PHOSPHATASE / ASPARTATE AMINOTRANSFERASE / BLOOD UREA NITROGEN / CARBON DIOXIDE / CHLORIDE / CHOLESTEROL / CREATINE PHOSPHOKINASE / CREATININE / GLUCOSE / LACTATE DEHYDROGENASE / LIPASE / PHOSPHORUS / POTASSIUM / SODIUM / TOTAL BILIRUBIN / TOTAL PROTEIN / URIC ACID: tissue Plasma
# [1] = 80 mg/kg, 120 h, dose level Low, time 5 day
# [2] = 338 mg/kg, 72 h, dose level High, time 3 day
# [3] = 338 mg/kg, 120 h, dose level High, time 5 day
structure (smiles),measurement,setting,value
CC(C)(Oc1ccc(C2CCCc3ccccc32)cc1)C(=O)O (centres undefined) [NAFENOPIN],ABSOLUTE BASOPHIL,[1],0 CELLS/uL
same,ABSOLUTE EOSINOPHIL,[1],0 CELLS/uL
same,ABSOLUTE LYMPHOCYTE,[1],12561 CELLS/uL
same,ABSOLUTE MONOCYTE,[1],516.67 CELLS/uL
same,ABSOLUTE SEGMENTED NEUTROPHIL,[1],1089 CELLS/uL
same,BASOPHIL,[1],0%
same,EOSINOPHIL,[1],0%
same,ERYTHROCYTE COUNT,[1],5.43 x10E6/uL
same,HEMATOCRIT,[1],32.67%
same,HEMOGLOBIN,[1],12.23 G/DL
same,LEUKOCYTE COUNT,[1],14.17 x10E3/uL
same,LYMPHOCYTE,[1],88.67%
same,MEAN CORPUSCULAR HEMOGLOBIN,[1],22.57 pg
same,MEAN CORPUSCULAR HEMOGLOBIN CONCENTRATION,[1],37.5 G/DL
same,MEAN CORPUSCULAR VOLUME,[1],60.17 fL
same,MONOCYTE,[1],3.67%
same,NEUTROPHIL,[1],7.67%
same,NUCLEATED RED BLOOD CELLS,[1],0 /100WBC
same,PLATELET COUNT,[1],828.67 x10E3/uL
same,ALANINE AMINOTRANSFERASE,[1],61.67 u/L
same,ALBUMIN,[1],5.07 G/DL
same,ALKALINE PHOSPHATASE,[1],578 u/L
same,ASPARTATE AMINOTRANSFERASE,[1],85.33 u/L
same,BLOOD UREA NITROGEN,[1],14.33 mg/dL
same,CARBON DIOXIDE,[1],32 mmol/L
same,CHLORIDE,[1],97 MEQ/L
same,CHOLESTEROL,[1],65.33 mg/dL
same,CREATINE PHOSPHOKINASE,[1],403.67 u/L
same,CREATININE,[1],0.25 mg/dL
same,GLUCOSE,[1],148.67 mg/dL
same,LACTATE DEHYDROGENASE,[1],257.33 u/L
same,LIPASE,[1],9.67 u/L
same,PHOSPHORUS,[1],13.43 mg/dL
same,POTASSIUM,[1],6.96 MEQ/L
same,SODIUM,[1],142.07 MEQ/L
same,TOTAL BILIRUBIN,[1],0.13 mg/dL
same,TOTAL PROTEIN,[1],6.07 G/DL
same,URIC ACID,[1],1.23 mg/dL
same,ABSOLUTE BASOPHIL,[2],0 CELLS/uL
same,ABSOLUTE EOSINOPHIL,[2],40.33 CELLS/uL
same,ABSOLUTE LYMPHOCYTE,[2],10009.33 CELLS/uL
same,ABSOLUTE MONOCYTE,[2],484 CELLS/uL
same,ABSOLUTE SEGMENTED NEUTROPHIL,[2],1499.67 CELLS/uL
same,BASOPHIL,[2],0%
same,EOSINOPHIL,[2],0.33%
same,ERYTHROCYTE COUNT,[2],5.41 x10E6/uL
same,HEMATOCRIT,[2],32.97%
same,HEMOGLOBIN,[2],12.87 G/DL
same,LEUKOCYTE COUNT,[2],12.03 x10E3/uL
same,LYMPHOCYTE,[2],83.33%
same,MEAN CORPUSCULAR HEMOGLOBIN,[2],23.77 pg
same,MEAN CORPUSCULAR HEMOGLOBIN CONCENTRATION,[2],39.03 G/DL
same,MEAN CORPUSCULAR VOLUME,[2],60.93 fL
same,MONOCYTE,[2],4%
same,NEUTROPHIL,[2],12.33%
same,NUCLEATED RED BLOOD CELLS,[2],0 /100WBC
same,PLATELET COUNT,[2],1008 x10E3/uL
same,ALANINE AMINOTRANSFERASE,[2],113 u/L
same,ALBUMIN,[2],4.73 G/DL
same,ALKALINE PHOSPHATASE,[2],921 u/L
same,ASPARTATE AMINOTRANSFERASE,[2],143 u/L
same,BLOOD UREA NITROGEN,[2],13.67 mg/dL
same,CARBON DIOXIDE,[2],22 mmol/L
same,CHLORIDE,[2],104 MEQ/L
same,CHOLESTEROL,[2],59.67 mg/dL
same,CREATINE PHOSPHOKINASE,[2],584.33 u/L
same,CREATININE,[2],0.7 mg/dL
same,GLUCOSE,[2],143.67 mg/dL
same,LACTATE DEHYDROGENASE,[2],415.33 u/L
same,LIPASE,[2],10 u/L
same,PHOSPHORUS,[2],12.27 mg/dL
same,POTASSIUM,[2],6.14 MEQ/L
same,SODIUM,[2],143.63 MEQ/L
same,TOTAL BILIRUBIN,[2],0.2 mg/dL
same,TOTAL PROTEIN,[2],5.63 G/DL
same,URIC ACID,[2],1.23 mg/dL
same,ABSOLUTE BASOPHIL,[3],0 CELLS/uL
same,ABSOLUTE EOSINOPHIL,[3],38 CELLS/uL
same,ABSOLUTE LYMPHOCYTE,[3],11719.67 CELLS/uL
same,ABSOLUTE MONOCYTE,[3],400 CELLS/uL
same,ABSOLUTE SEGMENTED NEUTROPHIL,[3],1175.67 CELLS/uL
same,BASOPHIL,[3],0%
same,EOSINOPHIL,[3],0.33%
same,ERYTHROCYTE COUNT,[3],5.3 x10E6/uL
same,HEMATOCRIT,[3],30.47%
same,HEMOGLOBIN,[3],11.43 G/DL
same,LEUKOCYTE COUNT,[3],13.33 x10E3/uL
same,LYMPHOCYTE,[3],88%
same,MEAN CORPUSCULAR HEMOGLOBIN,[3],21.6 pg
same,MEAN CORPUSCULAR HEMOGLOBIN CONCENTRATION,[3],37.53 G/DL
same,MEAN CORPUSCULAR VOLUME,[3],57.53 fL
same,MONOCYTE,[3],3%
same,NEUTROPHIL,[3],8.67%
same,NUCLEATED RED BLOOD CELLS,[3],0 /100WBC
same,PLATELET COUNT,[3],850.67 x10E3/uL
same,ALANINE AMINOTRANSFERASE,[3],87 u/L
same,ALBUMIN,[3],4.73 G/DL
same,ALKALINE PHOSPHATASE,[3],891.33 u/L
same,ASPARTATE AMINOTRANSFERASE,[3],88.67 u/L
same,BLOOD UREA NITROGEN,[3],12.67 mg/dL
same,CARBON DIOXIDE,[3],29 mmol/L
same,CHLORIDE,[3],98 MEQ/L
same,CHOLESTEROL,[3],96.67 mg/dL
same,CREATINE PHOSPHOKINASE,[3],209.67 u/L
same,CREATININE,[3],0.65 mg/dL
same,GLUCOSE,[3],129.67 mg/dL
same,LACTATE DEHYDROGENASE,[3],216.67 u/L
same,LIPASE,[3],10 u/L
same,PHOSPHORUS,[3],12.7 mg/dL
same,POTASSIUM,[3],6.55 MEQ/L
same,SODIUM,[3],143.43 MEQ/L
same,TOTAL BILIRUBIN,[3],0.23 mg/dL
same,TOTAL PROTEIN,[3],5.67 G/DL
same,URIC ACID,[3],1.3 mg/dL
